Measurements as given in patent US20240269298A1, “PHOSPHONYL DERIVATIVE, AND COMPOSITION AND PHARMACEUTICAL APPLICATION THEREOF” (XIZANG HAISCO PHARMACEUTICAL CO., LTD., priority 2021, published 2024).
Like-named read-outs stand apart in the source and are kept apart here.

Tests used:
[1] = system: NCI-H1975 (EGFR-L858R-T790M) cells; test: Inhibitory activity on proliferation of NCI-H1975 (EGFR-L858R-T790M) cells (CTG, 72 h); type: cell-based; details: Homo sapiens
Method in brief: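 IC50 values come from S-shaped dose-survival fits of CTG signal expressed as % of vehicle. Compound exposure lasted 72 h at 37 °C with 0.1% DMSO; seeding was 3000 A431 cells/well in DMEM+10% FBS and 1000 NCI-H1975 cells/well in RPMI1640+10% FBS.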

A431 (EGFR-WT) cells = test: Inhibitory activity on proliferation of A431 (EGFR-WT) cells (CTG, 72 h); type: cell-based; details: Homo sapiens, A-431
Method: NCI-H1975 (EGFR-L858R-T790M) and A431 (EGFR-WT) cells were purchased from ATCC and cultured in an incubator at 37° C. with 5% CO2, and the culture mediums were RPMI1640+10% FBS and DMEM+10% FBS, respectively. On the first day, NCI-H1975 (EGFR-L858R-T790M) and A431 (EGFR-WT) cells in the logarithmic phase were collected, and viable cells were counted using an automatic cell analyzer (countstar). The cell suspensions were adjusted with the culture mediums and plated on a 96-well cell culture plate at 1000 cells/well for NCI-H1975 (EGFR-L858R-T790M) cells and at 3000 cells/well for A431 cells. The next day, the culture mediums were aspirated, and 90 μL of fresh culture mediums and 10 μL of the compounds at different concentrations were added to each well, wherein the final concentration of DMSO in each well was 0.1%. The plate was cultured in the incubator at 37° C. with 5% CO2 for 72 hours. After 72 hours of drug treatment, 50 μL of CTG solution (promega, G7572), which was already pre-melted and equilibrated to room temperature, was added to each well, and the mixtures were uniformly mixed for 2 min using a microplate shaker. The plate was placed at room temperature for 10 min, and then […] signal values were measured using a microplate reader (PHERAstar FSX).
Surviving cells % was calculated based on Vsample/Vvehicle control×100%, wherein Vsample was the readout of the drug-treated group, and Vvehicle control was the average value of the vehicle control group. Using the origin 9.2 software and nonlinear regression model, S-shaped dose-survival curves were plotted, and IC50 values were calculated.

[2] = read-out: IC50 (value in brackets)

| SMILES | IC50 ([1]; read-out: IC50 (class symbol)) [nM] | IC50 [1, 2] [nM] | IC50 (A431 (EGFR-WT) cells) [nM] |
| --- | --- | --- | --- |
| COc1cc(N2CCC(N3CCN(CC4CCN(c5ccc6c(c5)C(=O)N(C5CCC(=O)NC5=O)C6=O)C4)CC3)CC2)c(-c2cnn(C)c2)cc1Nc1ncc(Br)c(Nc2ccc3nccnc3c2P(C)(C)=O)n1 (stereo not drawn) [Compound 30, 5-(3-((4-(1-(4-((5-bromo-4-((5-(dimethylphosphoryl)quinoxalin-6-yl)amino)pyrimidin-2-yl)amino)-5-methoxy-2-(1-methyl-1H-pyrazol-4-yl)phenyl)piperidin-4-yl)piperazin-1-yl)methyl)pyrrolidin-1l-yl)-2-(2,6-dioxopiperidin-3-yl)isoindoline-1,3-dione] | < 100 | 12 | ≥ 10000 |
| CCn1cc(-c2cc(Nc3ncc(Cl)c(Nc4ccc(-c5ccccc5)cc4P(C)(C)=O)n3)c(OC)cc2N2CCC(CN3CCN(c4ccc5c(c4)C(=O)N(C4CCC(=O)NC4=O)C5=O)CC3)CC2)cn1 (stereo not drawn) [Compound 110, 5-(4-((1-(4-((5-chloro-4-((3-(dimethylphosphoryl)-[1,1′-biphenyl]-4-yl)amino)pyrimidin-2-yl)amino)-2-(1-ethyl-1H-pyrazol-4-yl)-5-methoxyphenyl)piperidin-4-yl)methyl)piperazin-1-yl)-2-(2,6-dioxopiperidin-3-yl)isoindoline-1,3-dione] | 100 to 500 | 232 | ≥ 10000 |
| COc1cc(N2CCN(C3CCC4(CC3)CCN(c3ccc5c(c3)C(=O)N(C3CCC(=O)NC3=O)C5=O)CC4)CC2)c(-c2cnn(C)c2)cc1Nc1ncc(Br)c(Nc2ccc(-c3ccccc3)cc2P(C)(C)=O)n1 (stereo not drawn) [Compound 85, 5-(9-(4-(4-((5-bromo-4-((3-(dimethylphosphoryl)-[1,1′-biphenyl]-4-yl)amino)pyrimidin-2-yl)amino)-5-methoxy-2-(1-methyl-1H-pyrazol-4-yl)phenyl)piperazin-1-yl)-3-azaspiro [5.5]undecan-3-yl)-2-(2,6-dioxopiperidin-3-yl)isoindoline-1,3-dione] | < 100 | 77 | ≥ 10000 |

Further lines, results first:

| IC50 ([1]; read-out: IC50 (class symbol)) [nM] | IC50 [1, 2] [nM] | IC50 (A431 (EGFR-WT) cells) [nM] | SMILES |
| --- | --- | --- | --- |
| < 100 | 95 | ≥ 10000 | COc1cc(N2CCC(C(=O)N3CCN(c4ccc5c(c4)C(=O)N(C4CCC(=O)NC4=O)C5=O)CC3)CC2)c(-c2cnn(C)c2)cc1Nc1ncc(Br)c(Nc2ccccc2P(C)(C)=O)n1 (stereo not drawn) [Compound 146, 5-(4-(1-(4-((5-bromo-4-((2-(dimethylphosphoryl)phenyl)amino)pyrimidin-2-yl)amino)-5-methoxy-2-(1-methyl-1H-pyrazol-4-yl)phenyl)piperidine-4-carbonyl)piperazin-1-yl)-2-(2,6-dioxopiperidin-3-yl)isoindoline-1,3-dione] |
| 100 to 500 | 103 | ≥ 10000 | COc1cc(N2CCC(F)(CN3CCN(c4ccc5c(c4)C(=O)N(C4CCC(=O)NC4=O)C5=O)CC3)CC2)c(-c2cnn(C)c2)cc1Nc1ncc(Br)c(Nc2ccc(C3CC3)cc2P(C)(C)=O)n1 (stereo not drawn) [Compound 147, 5-(4-((1-(4-((5-bromo-4-((4-cyclopropyl-2-(dimethylphosphoryl)phenyl)amino)pyrimidin-2-yl)amino)-5-methoxy-2-(1-methyl-1H-pyrazol-4-yl)phenyl)-4-fluoropiperidin-4-yl)methyl)piperazin-1-yl)-2-(2,6-dioxopiperidin-3-yl)isoindoline-1,3-dione] |
| < 100 | 77 | ≥ 10000 | COc1cc(N2CCC(CN3CCN(c4ccc5c(c4)C(=O)N([C@@H]4CCC(=O)NC4=O)C5=O)CC3)CC2)c(-c2cnn(C)c2)cc1Nc1ncc(Br)c(Nc2ccc(C3CC3)cc2P(C)(C)=O)n1 [Compound 171] |
